According to ChEMBL document CHEMBL5154690, “Discovery of a tricyclic farnesoid X receptor agonist HEC96719, a clinical candidate for treatment of non-alcoholic steatohepatitis” (Eur J Med Chem, 2022):
The source made the active and inactive calls. No cut-off for these calls is given here.

What was measured:
[1] = Half-life in male Sprague-Dawley rat at 5 mg/kg, po measured by LC-MS/MS analysis; assay type: ADME, organism-based; conditions: in vivo
[2] = AUC (0 to t) in male Sprague-Dawley rat at 1 mg/kg, iv measured by LC-MS/MS analysis; assay type: ADME, organism-based; set-up: dose 1 mg/kg, route iv; conditions: in vivo
[3] = Volume of distribution at steady state in male Sprague-Dawley rat at 1 mg/kg, iv measured by LC-MS/MS analysis; assay type: ADME, organism-based; conditions: in vivo, read-out: Vdss
Mus musculus [4] = assay: Anti-NASH activity against high fat (HF) diet-induced nonalcoholic steatohepatitis in leptin-deficient ob/ob mouse model assessed as reduction in serum ALT level at 3 mg/kg, po administered once daily from week 5 to 10; assay type: functional, organism-based
Mus musculus [5] = assay: Anti-NASH activity against high fat (HF) diet-induced nonalcoholic steatohepatitis in leptin-deficient ob/ob mouse model assessed as reduction in liver cholesterol level at 3 mg/kg, po administered once daily from week 5 to 10; assay type: functional, organism-based
Mus musculus [6] = assay: Anti-NASH activity against high fat (HF) diet-induced nonalcoholic steatohepatitis in leptin-deficient ob/ob mouse model assessed as reduction in NASH activity score (NAS) at 3 mg/kg, po administered once daily from week 5 to 10; assay type: functional, organism-based
[7] = biological target: T1, G-protein coupled bile acid receptor 1 (Homo sapiens, UniProt Q8TDU6); assay: Agonist activity in human GPBAR1 assessed as increase in intracellular cAMP level; assay type: functional, cell-based
T1 sequence (Q8TDU6 whole entry): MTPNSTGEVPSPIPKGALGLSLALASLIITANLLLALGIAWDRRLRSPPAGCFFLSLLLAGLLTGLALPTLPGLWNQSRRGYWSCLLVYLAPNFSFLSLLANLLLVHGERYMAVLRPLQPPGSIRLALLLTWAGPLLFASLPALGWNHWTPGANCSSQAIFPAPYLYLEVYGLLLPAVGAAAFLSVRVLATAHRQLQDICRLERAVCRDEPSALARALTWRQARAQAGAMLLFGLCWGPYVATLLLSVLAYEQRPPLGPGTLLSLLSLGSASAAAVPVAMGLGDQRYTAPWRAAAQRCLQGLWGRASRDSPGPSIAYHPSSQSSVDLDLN

[8] = biological target: T2, Peroxisome proliferator-activated receptor delta (Homo sapiens, UniProt Q03181); assay: Agonist activity at PPARdelta (unknown origin)
T2 sequence (Q03181 whole entry): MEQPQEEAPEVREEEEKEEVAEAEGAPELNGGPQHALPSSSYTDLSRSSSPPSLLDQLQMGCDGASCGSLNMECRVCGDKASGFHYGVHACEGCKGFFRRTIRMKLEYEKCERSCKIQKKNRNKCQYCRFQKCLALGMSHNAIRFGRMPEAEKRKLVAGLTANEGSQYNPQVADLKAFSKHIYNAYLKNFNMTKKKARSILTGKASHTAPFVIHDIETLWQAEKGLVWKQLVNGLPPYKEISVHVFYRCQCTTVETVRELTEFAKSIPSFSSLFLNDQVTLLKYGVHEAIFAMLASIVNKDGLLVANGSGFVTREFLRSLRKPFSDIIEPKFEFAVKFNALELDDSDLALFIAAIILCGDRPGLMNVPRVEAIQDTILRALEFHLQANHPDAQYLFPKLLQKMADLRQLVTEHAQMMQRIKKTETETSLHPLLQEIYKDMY

Mus musculus [9] = assay: Anti-NASH activity in western style diet-induced nonalcoholic steatohepatitis model of male C57BL/6 mouse assessed as reduction in serum ALT level at 1 mg/kg, po administered once daily from week 32 to 44; assay type: functional, organism-based
Mus musculus [10] = assay: Antifibrotic activity in C57BL/6 mouse model of CCI4-induced liver fibrosis assessed as reduction in fibrosis area at 0.1 to 1 mg/kg, po administered once daily for 4 weeks; assay type: functional, organism-based; conditions: dose 0.1-1 mg/kg
[11] = Half-life in male C57BL/6 mouse at 2 mg/kg, iv measured by LC-MS/MS analysis; assay type: ADME, organism-based; conditions: in vivo
[12] = Volume of distribution at steady state in male C57BL/6 mouse at 2 mg/kg, iv measured by LC-MS/MS analysis; assay type: ADME, organism-based; conditions: in vivo, read-out: Vdss
[13] = Half-life in male C57BL/6 mouse at 5 mg/kg, po measured by LC-MS/MS analysis; assay type: ADME, organism-based; conditions: in vivo
[14] = Drug recovery in brain of male Sprague-Dawley rat at 4.5 mg/kg, po administered as C14-lableled compound and assessed as radioactivity and measured at 0.25 hrs; assay type: ADME, organism-based; conditions: in vivo, BLD = below limit of detection
[15] = Drug recovery in lung of male Sprague-Dawley rat at 4.5 mg/kg, po administered as C14-lableled compound and assessed as radioactivity and measured at 0.25 hrs; assay type: ADME, organism-based; conditions: in vivo
[16] = Drug recovery in skin of male Sprague-Dawley rat at 4.5 mg/kg, po administered as C14-lableled compound and assessed as radioactivity and measured at 0.25 hrs; assay type: ADME, organism-based, Skin of body; conditions: in vivo
[17] = Drug recovery in brain of male Sprague-Dawley rat at 4.5 mg/kg, po administered as C14-lableled compound and assessed as radioactivity and measured at 1 hr; assay type: ADME, organism-based; conditions: in vivo
[18] = Drug recovery in spleen of male Sprague-Dawley rat at 4.5 mg/kg, po administered as C14-lableled compound and assessed as radioactivity and measured at 1 hr; assay type: ADME, organism-based; conditions: in vivo
[19] = Drug recovery in pancreas of male Sprague-Dawley rat at 4.5 mg/kg, po administered as C14-lableled compound and assessed as radioactivity and measured at 1 hr; assay type: ADME, organism-based; conditions: in vivo
[20] = Drug recovery in kidney of male Sprague-Dawley rat at 4.5 mg/kg, po administered as C14-lableled compound and assessed as radioactivity and measured at 1 hr; assay type: ADME, organism-based; conditions: in vivo
[21] = Drug recovery in liver of male Sprague-Dawley rat at 4.5 mg/kg, po administered as C14-lableled compound and assessed as radioactivity and measured at 1 hr; assay type: ADME, organism-based; conditions: in vivo
[22] = Drug recovery in ileum of male Sprague-Dawley rat at 4.5 mg/kg, po administered as C14-lableled compound and assessed as radioactivity and measured at 1 hr; assay type: ADME, organism-based; conditions: in vivo
[23] = Drug recovery in heart of male Sprague-Dawley rat at 4.5 mg/kg, po administered as C14-lableled compound and assessed as radioactivity and measured at 6 hrs; assay type: ADME, organism-based; conditions: in vivo, BLD = below limit of detection
[24] = Drug recovery in plasma of male Sprague-Dawley rat at 4.5 mg/kg, po administered as C14-lableled compound and assessed as radioactivity and measured at 6 hrs; assay type: ADME, organism-based; conditions: in vivo
[25] = Drug recovery in brain of male Sprague-Dawley rat at 4.5 mg/kg, po administered as C14-lableled compound and assessed as radioactivity and measured at 24 hrs; assay type: ADME, organism-based; conditions: in vivo, BLD = below limit of detection
[26] = Drug recovery in heart of male Sprague-Dawley rat at 4.5 mg/kg, po administered as C14-lableled compound and assessed as radioactivity and measured at 24 hrs; assay type: ADME, organism-based; conditions: in vivo, BLD = below limit of detection
[27] = Drug recovery in lung of male Sprague-Dawley rat at 4.5 mg/kg, po administered as C14-lableled compound and assessed as radioactivity and measured at 24 hrs; assay type: ADME, organism-based; conditions: in vivo, BLD = below limit of detection
[28] = Drug recovery in skin of male Sprague-Dawley rat at 4.5 mg/kg, po administered as C14-lableled compound and assessed as radioactivity and measured at 24 hrs; assay type: ADME, organism-based, Skin of body; conditions: in vivo, BLD = below limit of detection
[29] = Mutagenecity in Salmonella typhimurium TA98 measured by Ames test; assay type: toxicity; conditions: salmonella enterica subsp. enterica serovar typhimurium

For O=C(O)c1ccc2c(c1)Oc1ccc(OCc3c(-c4c(Cl)cccc4Cl)noc3C3CC3)nc1C1(CC1)C2, the half-life [1] was 1.6 h, the AUC(0-t) [2] was 473 ng·h/mL and the Vd [3] was 0.65 L/kg. The Activity (Mus musculus [4]) was “Active”, the Activity (Mus musculus [5]) was “Active” and the Activity (Mus musculus [6]) was “Active”. The EC50 [7] was greater than 10 µM, the EC50 [8] was greater than 10 µM and the Activity (Mus musculus [9]) was “Active”. For the same compound, the Activity (Mus musculus [10]) was “Active”, the half-life [11] was 0.47 h and the Vd [12] was 3.83 L/kg. The half-life [13] was 1.06 h, the Drug recovery [14] was “Bld” and the Drug recovery [15] was 868 ngequiv/g. For the same compound, the Drug recovery [16] was 33.3 ngequiv/g, the Drug recovery [17] was 38.2 ngequiv/g and the Drug recovery [18] was 104 ngequiv/g. The Drug recovery [19] was 229 ngequiv/g, the Drug recovery [20] was 457 ngequiv/g and the Drug recovery [21] was 6520 ngequiv/g. For the same compound, the Drug recovery [22] was 1553 ngequiv/g, the Drug recovery [23] was “Bld” and the Drug recovery [24] was 27 ngequiv/g. The Drug recovery [25] was “Bld”, the Drug recovery [26] was “Bld” and the Drug recovery [27] was “Bld”. For the same compound, the Drug recovery [28] was “Bld” and the Activity [29] was “Non-Toxic”.
